Laboratory results from paper PMC9081605, “A High-Throughput Toxicity Screen of 42 Per- and Polyfluoroalkyl Substances (PFAS) and Functional Assessment of Migration and Gene Expression in Human Placental Trophoblast Cells” (Frontiers in Toxicology, 2022).
“Also recorded” adds a separate entry of the source.

Columns and labels:
Assay type in all cases: cell-based, human
JEG-3 cells [1] = assay: CellTiter-Glo luminescent cell viability assay (HTTS)
Procedure, shortened: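 JEG-3 cells (2,500/well) adhered overnight, then exposed 24 h to PFAS (methanol stocks; vehicle 2.5% methanol, top concentration 500 µM). Viability read by CellTiter-Glo ATP luminescence in the same wells as mitochondrial membrane potential; wells with 0 h confluence <20% or >80% excluded.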

JEG-3 cells [2] = assay: Proliferation, change in confluence 0-24 h (IncuCyte Zoom, HTTS)
Procedure, shortened: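 Confluence measured by automated image masking at 0 h and 24 h after dosing; proliferation = 24 h minus baseline confluence. JEG-3 seeded at 2,500 cells/well, ~30–50% baseline confluence, exposed 24 h to PFAS up to 500 µM in medium with 2.5% methanol vehicle; 37°C, 5% CO2.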

JEG-3 cells [3] = assay: Mitochondrial membrane potential, JC-10 assay (HTTS)
Procedure, shortened: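 JEG-3 cells seeded at 2,500 per well were exposed to PFAS for 24 h at 37 °C, with 2.5% methanol vehicle. After a PBS wash, 20 μM JC-10 was added for 1 h at 37 °C. Membrane potential was taken as the green (490/525 nm) to red (540/590 nm) fluorescence ratio.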

JEG-3 cells [4] = assay: Phase contrast live cell images, cell death (positive control); settings: 24 h
Method: A total of 42 perfluoroalkyl substances (PFAS) were evaluated (Supplementary Table S1 contains source and purity). PFAS stock solutions were maintained in 100% methanol as previous work has shown certain PFAS degrade when stored in dimethyl sulfoxide (DMSO; [Gaballah et al., 2020]). […] The vehicle control group consisted of 97.5% media + 2.5% methanol to match the concentration of methanol in the media at the highest PFAS concentration tested (500 µM). Menadione (50–500 µM) was used as a positive control for cytotoxicity assessment. PFAS were de-identified and assigned random numbers to eliminate bias. Chemical exposure plate maps were designed so that all experimental conditions were tested in at least technical duplicates per plate. The outer edges of each plate received media alone and were excluded from all analyses to avoid edge effects. Each plate map included 14 technical replicates of the vehicle control group and 14 technical replicates of media only. Biological replicates were defined as separate 384 well plates tested on separate days using different cell passages. The experimental workflow is depicted in Supplementary Figure S1.
JEG-3 cells were counted using a Z2 Coulter Particle Counter (Beckman Coulter, CA, United States) and seeded at a density of 2,500 cells per well in black-walled, clear bottom 384 well plates (Corning, #3764) and allowed to adhere overnight. Approximately 24 h later, 384 well plates were imaged using an IncuCyte Zoom live cell imager (Essen BioScience Inc., MI, United States) to obtain baseline cellular confluence measurements prior to chemical dosing (0 h). Media was removed from wells and replaced with fresh media containing chemical treatments (exposure media) using a Viaflo liquid handling device (Integra Biosciences, NH, United States). Within 30 min of exposure media application, plates were again imaged for cellular confluence using the IncuCyte Zoom. Plates were incubated with exposure media for 24 h and then imaged again using the IncuCyte Zoom (24 h).

JEG-3 cells [5] = assay: Scratch wound migration assay; settings: after 24 h of exposure, 25-200 µM
Method: JEG-3 cells were cultured as described in Cell Culture section, and six PFAS were evaluated across an 8-point linear concentration curve ranging from 25 to 200 µM (25 µM steps): PFOA (335-67-1), GenX (62037-80-3), PFOS (1763-23-1), perfluorooctanesulfonamide (PFOSA, 754-91-6), perfluorooctanamide (PFOAA, 423-54-1), and perfluorononanoic acid (PFNA, 375-95-1). The vehicle control group consisted of 98% media + 2% methanol to match the concentration of methanol in the media at the highest PFAS concentration tested (200 µM). Cadmium chloride (25 µM) was used as a positive control for cytotoxicity ([Brooks and Fry, 2017]). Chemical exposure plate maps were designed so that all experimental conditions were tested in at least technical duplicates per plate. The outer edges of each plate received media alone and were excluded from all analyses to avoid edge effects. JEG-3 cells were counted and seeded at a density of 80,000 cells per well in black-walled, clear bottom 96-well plates (Corning #CLS3603, Millipore Sigma) and allowed to adhere and grow for 36 h. After approximately 36 h, 96-well plates were imaged on the IncuCyte Zoom to obtain cellular confluence measurements prior to chemical dosing (0 h). Media was then removed from wells and replaced with fresh serum-free media containing chemical treatments (serum-free exposure media) using the Viaflo liquid handling device. After 1 h of treatment with serum-free exposure media, plates were again imaged for cellular confluence using the IncuCyte Zoom. Serum-free exposure media was then removed from wells and wells were scratched by dragging a 200 µl pipette tip from top to bottom of each well, changing tips every well. Fresh media containing serum and chemical treatments (exposure media) was added to plates using a liquid handling device and allowed to grow for 72 h, with imaging via the IncuCyte Zoom every 6 h.
Plate well bottom images were evaluated using automated cell masking as described in Proliferation section. Cell migration was calculated as the change in cellular confluence from the baseline measurement obtained immediately post-scratch to each subsequent time point (24, 48, and 72 h, post-scratch).
Raw migration assay data exported from IncuCyte software were analyzed using GraphPad Prism 8.0 (GraphPad Software, San Diego, CA)). Prior to analysis, a minimum starting confluence value of 70% was set to ensure comparisons between samples were not skewed. Images with a starting confluence of less than 70% were excluded from analysis. Statistical analysis was performed using multiple unpaired t-tests to compare treated groups to the vehicle control followed by post hoc correction for multiple tests using the Bonferroni-Dunn method. Concentration-response analysis to determine migration assay EC50s was attempted but was not able to be modeled due to the non-linear nature of the concentration-response relationship for this endpoint.

[6] = after 24 h, in at least one concentration
[7] = Homo sapiens, JEG-3, 24 h, read-out: Proliferation EC50 ± SD, JEG-3 cells, 24 h exposure, four-parameter fit, estimates meeting inclusion criteria

SMILES	EC50 (JEG-3 cells [1]; Homo sapiens, JEG-3, 24 h, read-out: Viability EC50 ± SD, JEG-3 cells, 24 h exposure, four-parameter fit, estimates meeting inclusion criteria)	cell viability relative to vehicle control (rough binning) (JEG-3 cells [1]; [6])	minimal effective concentration (JEG-3 cells [2]; Homo sapiens, JEG-3, 24 h, read-out: Prolif ↓, lowest concentration at which the mean response value exceeded the mean control value ± 2*SD (rough binning))	EC50 (JEG-3 cells [2]; [7])	cellular proliferation relative to vehicle control (rough binning) (JEG-3 cells [2]; [6])	minimal effective concentration (JEG-3 cells [3]; Homo sapiens, JEG-3, 24 h, read-out: MMP ↓, lowest concentration at which the mean response value exceeded the mean control value ± 2*SD (rough binning))	MMP relative to vehicle control (rough binning) (JEG-3 cells [3]; [6])	cytotoxicity / cell death (JEG-3 cells [4]; 100 µM)	cell death (JEG-3 cells [4]; 150 µM)	concentration that promoted cell death (JEG-3 cells [4])	EC50 (JEG-3 cells [2]; Homo sapiens, JEG-3, 24 h, read-out: proliferation EC50 ± SE, JEG-3 cells, 24 h)	EC50 (JEG-3 cells [2]; Homo sapiens, JEG-3, read-out: Proliferation EC50 ± SD (raw values), JEG-3 cells, raw model output including fits that did not meet inclusion criteria)	EC50 (JEG-3 cells [3]; Homo sapiens, JEG-3, 24 h, read-out: MMP EC50 ± SD, JEG-3 cells, 24 h exposure, four-parameter fit, estimates meeting inclusion criteria)	cellular migration relative to vehicle control (JEG-3 cells [5])
CC1=CC(=O)c2ccccc2C1=O [Menadione, reference compound]	206 ± 47.1 µM	reduced cell viability	150 µM	157 ± 21.4 µM	reduced proliferation	300 µM	reduced MMP	minimal cell death; also recorded: not cytotoxic	Complete cell death	≥ 150 µM	–	–	–	–
NC(=O)C(F)(F)C(F)(F)C(F)(F)C(F)(F)C(F)(F)C(F)(F)C(F)(F)F [Perfluorooctanamide]	–	–	–	114 µM	–	–	–	–	–	–	114 ± 35.6 µM	114 ± 35.6 µM	295 ± 66.1 µM	significantly reduced
